“And” between values parts separate entries of the source, which are not always exact repeats. Equal entries are not always repeated.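 Results reflect a 48-hour exposure of cells in 96-well plates to compound at five concentrations. GI50 marks 50% less growth. TGI is the concentration that stops growth completely.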
Assays:
Test in all cases: growth of human tumour cells (NCI), 48 h
786-0 renal = tested on: 786-0 renal
SR leukemia = tested on: SR leukemia
OVCAR-8 ovarian = tested on: OVCAR-8 ovarian
T-47D breast = tested on: T-47D breast
SF-295 CNS = tested on: SF-295 CNS
M14 melanoma = tested on: M14 melanoma
HS 578T breast = tested on: HS 578T breast
K-562 leukemia = tested on: K-562 leukemia
EKVX NSCLC = tested on: EKVX NSCLC
A498 renal = tested on: A498 renal

Compound | GI50 (786-0 renal) | TGI (786-0 renal) | GI50 (SR leukemia) | TGI (SR leukemia) | GI50 (OVCAR-8 ovarian) | TGI (OVCAR-8 ovarian) | GI50 (T-47D breast) | TGI (T-47D breast) | GI50 (SF-295 CNS) | TGI (SF-295 CNS) | GI50 (M14 melanoma) | TGI (M14 melanoma) | GI50 (HS 578T breast) | TGI (HS 578T breast) | GI50 (K-562 leukemia) | TGI (K-562 leukemia) | GI50 (EKVX NSCLC) | TGI (EKVX NSCLC) | GI50 (A498 renal) | TGI (A498 renal)
C[C@]12CCC(=O)C=C1CC[C@@H]1[C@@H]2CC[C@]2(C)C(=O)/C(=C/c3cccc(OCCN4CCOCC4)c3)C[C@@H]12 | 12.8 µM | > 100 µM | 4.72 µM | 22 µM | 6.28 µM | > 100 µM | 2.9 µM | > 100 µM | 3.74 µM | 16.6 µM | 8.9 µM | 21.5 µM | 16.6 µM | 66.7 µM | 3.51 µM | 15.5 µM | 5.57 µM | 42.3 µM | 18.5 µM | 36.1 µM
COC(=O)Nc1nc2ccc(Oc3ccc(NC(=O)Nc4cccc(Cl)c4)cc3)cc2[nH]1 | 1.87 µM | 8.28 µM | 0.144 µM | > 14.3 µM | 2.84 µM | > 17.8 µM | 1.02 µM | 5.65 µM | 0.777 µM | 6.59 µM | 1.25 µM | > 11.8 µM | 0.553 µM | 9.67 µM | 0.175 µM | > 25 µM | 3.71 µM | > 25 µM | 1.64 µM | 13.8 µM
CC/C(=C(\CC)c1ccc(OCCN(CC)CC)cc1)c1ccc(OCCN(CC)CC)cc1 | 1.6 µM | 3.66 µM | 1.38 µM | 6.55 µM | 5.85 µM | 19.3 µM | 2.65 µM | 6.73 µM | 1.37 µM | 3.91 µM | 0.771 µM | 2.27 µM | 1.74 µM | 7.09 µM | 1.79 µM | 10.5 µM | 4.02 µM | 20.4 µM | 0.76 µM | 3.31 µM
O=C(O)c1cccc(CC(Br)C(=O)O)c1 (stereo unspecified) | – | > 100 µM | – | > 100 µM | – | > 100 µM | – | > 100 µM | – | > 100 µM | – | > 100 µM | – | > 100 µM | – | > 100 µM | – | > 100 µM | – | > 100 µM
Nc1nccc(Nc2ccc(S(N)(=O)=O)cc2)n1 | – | > 100 µM | – | > 100 µM | – | > 100 µM | – | > 100 µM | – | > 100 µM | – | > 100 µM | – | > 100 µM | – | > 100 µM | – | > 100 µM | – | > 100 µM
Cc1cccc(N=C2c3cc([N+](=O)[O-])ccc3-c3c2cc([N+](=O)[O-])cc3[N+](=O)[O-])c1 | 2.52 µM | 5.65 µM | 1.94 µM | 5.36 µM | 5.88 µM | 94.1 µM | 1.99 µM | 4.78 µM | 25.2 µM | > 100 µM | 2.2 µM | 4.57 µM | 11.3 µM | 53.9 µM | 2.9 µM | 10.5 µM | 5.08 µM | 19.7 µM | 27.8 µM | > 100 µM
CN(CCC(=O)O)S(=O)(=O)c1ccccc1 | – | > 100 µM | – | > 100 µM | – | > 100 µM | – | > 100 µM | – | > 100 µM | – | > 100 µM | – | > 100 µM | – | > 100 µM | – | > 100 µM | – | > 100 µM
Cc1ccc(NC(=O)c2ccnc(N3CCCC3)c2)cc1-c1ccc(C(=O)NCC2CC2)cc1 | > 25 µM | > 25 µM | 13 µM | > 25 µM | > 25 µM | > 25 µM | > 13.5 µM | > 25 µM | > 25 µM | > 25 µM | > 25 µM | > 25 µM | > 25 µM | > 25 µM | > 25 µM | > 25 µM | > 25 µM | > 25 µM | > 25 µM | > 25 µM
CC(=O)OCC1OC(S[As](C)C)C(OC(C)=O)C1OC(C)=O (stereo unspecified) | 0.176 µM | 0.77 µM | 0.025 µM | 0.29 µM | 0.272 µM | 1.57 µM | 0.62 µM | 17.3 µM | 2.06 µM | 7.33 µM | 0.193 µM | 0.726 µM | 0.319 µM | 0.841 µM | 0.0721 µM | 0.618 µM | 1.2 µM | 9.05 µM | 0.432 µM | 3.06 µM
O=C1C=CC2(C=C1)CCN=c1c(O)c3c(c(O)c12)=NC=N3 | 17.6 µM and > 100 µM | 32.1 µM and > 100 µM | 10.6 µM and 93 µM | > 100 µM | 14 µM and > 100 µM | 37.3 µM and > 100 µM | – | 25.2 µM and > 100 µM | 20 µM and > 100 µM | 34.4 µM and > 100 µM | 11.3 µM and > 100 µM | 23.7 µM and > 100 µM | – | 71.4 µM and > 100 µM | – | 42.6 µM and > 100 µM | 17 µM and > 100 µM | 31.7 µM and > 100 µM | 19.2 µM and > 100 µM | 33.5 µM and > 100 µM
COc1cccc2c1c1nc3cc(C)c(C)cc3nc1n2CCN(C)C | 1.35 µM | 5.53 µM | 0.452 µM | 8.7 µM | 0.798 µM | 13.3 µM | 2.76 µM | 13.6 µM | 2.17 µM | 7.62 µM | 1.24 µM | 3.07 µM | 1.8 µM | 6.99 µM | 0.982 µM | 9.12 µM | 2.29 µM | 7.33 µM | 0.533 µM | 1.9 µM
CC1(C)C2CCC13C(=O)C1OC3(C2)C2C(=O)c3c(O)ccc(O)c3C(=O)C12 (stereo unspecified) | 10.5 µM | 24.7 µM | 5.17 µM | 17.1 µM | 47.2 µM | > 93.9 µM | 36.7 µM | > 64.8 µM | 25.2 µM | > 100 µM | 14.1 µM | 29.2 µM | – | > 54.4 µM | 21.2 µM | > 59.1 µM | > 100 µM | > 100 µM | 4.95 µM | 56.6 µM
O=C1/C(=C/C(Cl)=C/c2ccccc2)SC(=S)N1CCc1ccc(O)cc1 | 2.19 µM | 4.92 µM | 0.86 µM | > 100 µM | 0.596 µM | 16.3 µM | 2.02 µM | 5.61 µM | 3.57 µM | 15.9 µM | 2.42 µM | 9.7 µM | 3.24 µM | > 100 µM | 2.17 µM | > 100 µM | 1.97 µM | 4.14 µM | 1.86 µM | 3.51 µM

Source: PubChem BioAssay (NCI)
